We go through eight molecules from US11560582B2, “Fusion moieties and microbial hosts for protein production” (priority 2018, dated 2023).

The test system of data set [1] is A. wodanis strain K7F1 150913. It is filed as cell-based, Aliivibrio wodanis. The note with it: 12° C. for 2 days. The procedure:
(§1) Antibiotic susceptibility testing was done by streaking A. wodanis cells onto LB plates supplemented with 2.5% NaCl and one of the following antibiotics: Chloramphenicol (2 μg/mL, Tetracycline (10 μg/mL), Carbenicillin (100 or 200 μg/mL) or Kanamycin (50 or 100 μg/mL). A. wodanis was regarded as susceptible (score=0) if no growth was detected, as intermediate susceptible (score=0.5) if poor growth was detected, or as resistant (score=1) if good growth was detected. The tested concentrations of antibiotics were similar to the recommended working concentrations for E. coli, except Chloramphenicol that was tested at 2 μg/mL (instead of 25 μg/mL). If the test scored as “resistant”, then the test was redone using 2× of the recommended concentration. All A. wodanis strains were streaked onto same agar plate and grown at 12° C. for 2 days.

Data set [2] has as its system A. wodanis strains. The data set is described as follows: Antibiotic resistance test, summary for all strains. Type of data set: cell-based, Aliivibrio wodanis. The note with it: the twelve strains used in this study. The procedure:
Next, we tested for resistance to antibiotics, four of which are commonly used in biotechnological applications, namely carbenicillin, kanamycin, tetracycline and chloramphenicol.
as §1

In data set [3] the test system is A. wodanis strain 01/09/401 (11). The data set is described as follows: Antibiotic susceptibility testing on LB plates. The note with it: 12° C. for 2 days. Type of data set: cell-based, Aliivibrio wodanis. How it is done:
as §1

In data set [4] the test system is A. wodanis strain 89/09/5532 (1). The data set is described as follows: Antibiotic susceptibility testing on LB plates. Type of data set: cell-based, Aliivibrio wodanis. The note with it: 12° C. for 2 days. The procedure:
as §1

Data set [5] deals with A. wodanis strain 06/09/170 (27). Briefly: Antibiotic susceptibility testing on LB plates. The note with it: 12° C. for 2 days. Type of data set: cell-based, Aliivibrio wodanis. The procedure:
as §1

The subject of data set [6] is A. wodanis strain 88/09/441 (12) (T). Briefly: Antibiotic susceptibility testing on LB plates. It is filed as cell-based, Aliivibrio wodanis. The note with it: 12° C. for 2 days. How it is done: as §1
The test system of data set [7] is A. wodanis strain 06/09/178 (29). Briefly: Antibiotic susceptibility testing on LB plates. Type of data set: cell-based, Aliivibrio wodanis. The note with it: 12° C. for 2 days. How it is done: as §1
For data set [8], the system named is A. wodanis strain 02/09/382 (8). Briefly: Antibiotic susceptibility testing on LB plates. Type of data set: cell-based, Aliivibrio wodanis. The note with it: 12° C. for 2 days. The procedure:
as §1

In data set [9] the test system is A. wodanis strain 02/09/569 (7). Briefly: Antibiotic susceptibility testing on LB plates. It is filed as cell-based, Aliivibrio wodanis. To be noted: 12° C. for 2 days. The procedure:
as §1

Data set [10] relates to A. wodanis strain 03/09/160 (37). The data set is described as follows: Antibiotic susceptibility testing on LB plates. To be noted: 12° C. for 2 days. Type of data set: cell-based, Aliivibrio wodanis. How it is done:
as §1

Data set [11] has as its system A. wodanis strain 90/09/325 (5). Briefly: Antibiotic susceptibility testing on LB plates. It is filed as cell-based, Aliivibrio wodanis. To be noted: 12° C. for 2 days. How it is done: as §1
Data set [12] deals with A. wodanis strain 04/60/17347 (35). Briefly: Antibiotic susceptibility testing on LB plates. The note with it: 12° C. for 2 days. It is filed as cell-based, Aliivibrio wodanis. How it is done: as §1
For data set [13], the system named is A. wodanis strains. The note with it: have been reported; cited from earlier work.
Data set [14] has as its system ssDNA "molecular beacon" substrate. The data set is described as follows: Exonuclease I molecular beacon activity assay. It is filed as biochemical. To be noted: affinity purified enzyme expressed in A. wodanis 03/09/160; increasing enzyme. How it is done:
The two enzyme activity assays used in this work are both based on so-called “molecular beacons”. Each “molecular beacon” consists of a hairpin shaped DNA oligonucleotide with an internally quenched fluorophore (in this case FAM). TAMRA was used as the FAM quencher. Enzyme activity of affinity purified AsExoI and MvExoI were tested in 50 μL reactions containing the following: 0.2 μM ssDNA “molecular beacon” substrate (5′-FAM-CGCCATCGGAGGTTC-TAMRA-3′ (SEQ ID NO:45)), 50 mM Tris pH 8.5, 30 mM MgCl2, 1 mM DTT, 0.2 mg/ml BSA, 2% glycerol and 8.5 nM enzyme (Exonuclease I). The reaction was carried out in a black 96-well fluorescence assay plate (Corning®), and increase in FAM fluorescence (excitation at 485 nm, emission at 518 nm) was measured as relative fluorescence units (RFU) at appropriate time intervals for 40 min.

As to `CC1(C)S[C@@H]2[C@H](NC(=O)C(C(=O)O)c3ccccc3)C(=O)N2[C@H]1C(=O)O` (stereo partly drawn) [CAR, Carbenicillin], the “Antibiotics resistance CAR 100 μg/mL” value in [1] (100 μg/mL) was 1; in data set [3] (100 μg/mL), 1; in data set [4] (100 μg/mL) it was 1; in data set [5] (100 μg/mL), 1; in data set [6] (100 μg/mL), 0.5; in [7] (100 μg/mL) it was 1. Besides, the “Antibiotics resistance CAR 100 μg/mL” value in [8] (100 μg/mL), in data set [9] (100 μg/mL), in data set [10] (100 μg/mL), in data set [11] (100 μg/mL) and in data set [12] (100 μg/mL) was 1 each time. The “Antibiotics resistance CAR 200 μg/mL” value in data set [1] (200 μg/mL) is 1; in [3] (200 μg/mL), 1; in data set [4] (200 μg/mL), 1; in [5] (200 μg/mL), 1; in [6] (200 μg/mL), 0.5; in data set [7] (200 μg/mL) it was 1. Also, the “Antibiotics resistance CAR 200 μg/mL” value in data set [8] (200 μg/mL), in data set [9] (200 μg/mL), in data set [10] (200 μg/mL), in [11] (200 μg/mL) and in data set [12] (200 μg/mL) was 1 throughout. For the same molecule, in data set [2], the “sensitivity / resistance to antibiotics” value was “resistance”.

Turning to `O=C(N[C@H](CO)[C@H](O)c1ccc([N+](=O)[O-])cc1)C(Cl)Cl` [CHL, chloramphenicol], the “Antibiotics resistance CHL 2 μg/mL” value in data set [1] (2 μg/mL), in data set [3] (2 μg/mL), in [4] (2 μg/mL), in data set [5] (2 μg/mL), in data set [6] (2 μg/mL) and in data set [7] (2 μg/mL) was 0 in each case. Also, the “Antibiotics resistance CHL 2 μg/mL” value in data set [8] (2 μg/mL), in [9] (2 μg/mL), in data set [10] (2 μg/mL), in [11] (2 μg/mL) and in [12] (2 μg/mL) was 0 throughout. In addition, in [2], the “sensitivity / resistance to antibiotics” value is listed as “sensitive”.

For `NC[C@H]1O[C@H](O[C@H]2[C@H](O)[C@@H](O[C@H]3O[C@H](CO)[C@@H](O)[C@H](N)[C@H]3O)[C@H](N)C[C@@H]2N)[C@H](O)[C@@H](O)[C@@H]1O` [KAN, Kanamycin], the “Antibiotics resistance KAN 50 μg/mL” value worked out at 1 in data set [1] (50 μg/mL); 1 in [3] (50 μg/mL); 1 in [4] (50 μg/mL); 0.5 in [5] (50 μg/mL); 1 in [6] (50 μg/mL); 1 in data set [7] (50 μg/mL). Also, the “Antibiotics resistance KAN 50 μg/mL” value in data set [8] (50 μg/mL), in data set [9] (50 μg/mL), in data set [10] (50 μg/mL), in data set [11] (50 μg/mL) and in [12] (50 μg/mL) was 1 throughout. Besides, the “Antibiotics resistance KAN 100 μg/mL” value in [1] (100 μg/mL), in [3] (100 μg/mL), in data set [4] (100 μg/mL), in data set [5] (100 μg/mL), in data set [6] (100 μg/mL) and in [7] (100 μg/mL) was 0.5 in each case. Also, the “Antibiotics resistance KAN 100 μg/mL” value in data set [8] (100 μg/mL), in [9] (100 μg/mL), in [10] (100 μg/mL), in data set [11] (100 μg/mL) and in data set [12] (100 μg/mL) was 0.5 in each case.

Consider `CN(C)[C@@H]1C(O)=C(C(N)=O)C(=O)[C@@]2(O)C(O)=C3C(=O)c4c(O)cccc4[C@@](C)(O)[C@H]3C[C@@H]12` [TET, Tetracycline], for which the “Antibiotics resistance TET 10 μg/mL” value in data set [1] (10 μg/mL), in data set [3] (10 μg/mL), in [4] (10 μg/mL), in data set [5] (10 μg/mL), in data set [6] (10 μg/mL) and in [7] (10 μg/mL) was 0 in each case. Further, the “Antibiotics resistance TET 10 μg/mL” value in data set [8] (10 μg/mL), in [9] (10 μg/mL), in [10] (10 μg/mL), in data set [11] (10 μg/mL) and in data set [12] (10 μg/mL) was 0 each time.

Consider `CC1(C)S[C@@H]2[C@H](NC(=O)[C@H](N)c3ccccc3)C(=O)N2[C@H]1C(=O)O` [ampicillin], for which, in [13], the “Resistance of A. wodanis strains (reported)” value (from here on “Resistance … (reported)”) is listed as “Resistance”.

`CO[C@@]1(NC(=O)Cc2cccs2)C(=O)N2C(C(=O)O)=C(COC(N)=O)CS[C@@H]21` [cefoxitin]: the “Resistance … (reported)” value in [13] is recorded as “Resistance”.

With `Cc1cc(NS(=O)(=O)c2ccc(N)cc2)no1` [sulfamethoxazole], the “Resistance … (reported)” value in data set [13] is “Resistance”.

B1: AsExoI: Exonuclease I from Aliivibrio salmonicida (SEQ ID NO: 37), His-tagged, expressed in A. wodanis (protein, listed as Aliivibrio salmonicida)
chain: MPQDNAPSFFFFDYETWGTSPSLDRPCQFAGVRTDEDFNIIGEPLVIYCRPPIDYLPSPEACLITGITPQMAVSKGLSEPEFIAQIHNELSKPNTCSLGYNNIRFDDEVSRYTLYRNFFEPYGWSWQNGNSRWDLLDVMRAVYALRPEGIEWPKDEEGKPSFRLEKLSQANGIEHENAHDAMADVIATIELAKVVKKAQPKMFNYLLSMRHKKKAATLIDIIEMTPLMHVSGMFGVDRGNISWIVPVAWHPTNNNAVITIDLALDPAVFLELDAEQLHQRMYTKRSELGPDELPVPVKLVHLNKCPILAPAKTLTAENAIALNVDREACLRNLKVIRENPEIRQKLIDLYNIEPGYEKSSNVDTLLYDGFFSHADKTAIDMIRQSTPEQLIDFEPNVSDPRIKPLLFRYRARNFPHTLNESEQLRWQAHLQDYFETHMSDYETRFESLYLESEGNEKKTAILRAVYNYVQQLVS
modifications: 6xHis tag
B1: in data set [14], the “exonuclease activity (FAM fluorescence, RFU)” value is on record as “dose-dependent”.
